These results are taken from PMC5444710, “Enhancement of radiosensitivity by the novel anticancer quinolone derivative vosaroxin in preclinical glioblastoma models” (Oncotarget, 2017).

In this assay the test system is LN229 glioma cell line. As to the kind of experiment: Inhibition of proliferation (cell viability). It counts as cell-based. To be noted: Homo sapiens, LN-229. Here is the method: Cells were seeded at a density of 2 × 10^4 cells/mL in 24-well plates. Cells were […] to attach and grow in 5% fetal bovine serum in DMEM for 24 hours. Cells were treated with different doses of radiation or temozolomide and then maintained in the appropriate culture conditions. At the conclusion of the treatment period, cells were trypsinized and resuspended in 1.0 mL of saline; viable cells were counted using the NucleoCounter^TM NC-100 (Chemotec, […], Denmark). All experiments were conducted in triplicate. IC50 values were calculated using GraFit (Erithacus Software Limited, Staines, UK).

As to `CN[C@H]1CN(c2ccc3c(=O)c(C(=O)O)cn(-c4nccs4)c3n2)C[C@@H]1OC` [vosaroxin], inhibition was half-maximal at 12.8 ± 2.3 nM (IC50).
